# Target: T1, human 5-HT1A-serotonergic receptor (Homo sapiens, UniProt P08908)
# T1 construct: expressed in transfected cells; host or cells: HeLa (human), stably transfected; membrane preparation
# T1 sequence (P08908 1-422): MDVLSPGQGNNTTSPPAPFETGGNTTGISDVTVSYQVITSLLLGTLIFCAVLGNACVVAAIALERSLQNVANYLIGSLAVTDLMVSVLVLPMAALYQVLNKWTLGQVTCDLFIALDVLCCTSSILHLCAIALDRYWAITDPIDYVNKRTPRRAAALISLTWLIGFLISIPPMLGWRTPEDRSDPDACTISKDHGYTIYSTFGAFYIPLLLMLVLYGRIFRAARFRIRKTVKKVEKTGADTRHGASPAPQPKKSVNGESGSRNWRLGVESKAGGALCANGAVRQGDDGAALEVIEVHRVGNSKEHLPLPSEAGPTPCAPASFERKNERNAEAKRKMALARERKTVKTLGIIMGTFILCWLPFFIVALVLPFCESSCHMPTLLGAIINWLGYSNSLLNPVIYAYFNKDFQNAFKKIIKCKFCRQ
# Assay: Radioligand binding to recombinant 5-HT1A receptors ([3H]8-OH-DPAT, HeLa cell membranes)
# Details: 1 nM [3H]8-OH-DPAT; Ki from IC50 by Cheng & Prusoff; read-out: Ki, binding affinity for 5-HT1A receptors
# Procedure: Genomic clone coding for the human 5-HT1A-serotonergic receptor was stably transfected in a human cell line (HeLa). HeLa cells were grown as monolayers in Dulbecco's modified Eagle medium (DMEM), containing 10% foetal bovine serum, gentamycin (0.1 mg/ml) and 5% carbon dioxide, at 37° C. The cells were detached from the growth flask at 95% confluence by a cell scraper and were lysed in cold 5 mM Tris and 5 mM EDTA buffer (pH 7.4). The homogenates were centrifuged at 40000×g×20 minutes and the pellets were resuspended in a small volume of cold 5 mM Tris and 5 mM EDTA buffer (pH 7.4) and immediately frozen and stored at −70° C. until use. On the day of experiment, the cell membranes were resuspended in incubation buffer: 50 mM Tris HCl (pH 7.4), 2.5 mM MgCl2, […] (Fargin et al., Nature 335, 358-360, 1988). The membranes were incubated in a final volume of 1 ml for 30 minutes at 30° C. with 1 nM [^3H]8-OH-DPAT, in the absence or presence of the test compounds. Non-specific binding was determined in the presence of 10 μM 5-HT. Incubation was stopped by addition of cold Tris-HC1 buffer and rapid filtration through a 0.2%-polyethyleneimine-pretreated Whatman-GF/B or Schleicher-&-Schuell-GF52 filter.
# The affinities of the tested compounds were evaluated as inhibition of specific binding of the radioligand to 5-HT1A receptors (IC50) by using the non-linear curve-fitting program Allfit (De Lean et al., Am. J. Physiol. 235, E97-E102 (1978). The IC50 value was converted to an affinity constant (Ki) by the equation of Cheng & Prusoff (Cheng Y. C., Prusoff W. H., Biochem. Pharmacol. 22, 3099-3108 (1973)).
row,SMILES,Ki
1,"COC(C1CCCCC1)C(CCN1CCN(c2cccc3c2OCCO3)CC1)c1ccccc1 (stereo not drawn) [Example 17, 1-(4-cyclohexyl-4-methoxy-3-phenylbutyl)-4-[5-(2,3-dihydro-1,4-benzodioxinyl)]piperazine]",0.64 nM
2,CC(C)CC(O)C(CCN1CCN(c2cccc3c2OCCO3)CC1)c1ccccc1 (stereo not drawn) [Example 36],0.56 nM
3,"C#CCOC(C1CCCCC1)C(CCN1CCN(c2ccc(F)cc2OC)CC1)c1ccccc1 (stereo not drawn) [Example 24, 1-(4-Cyclohexyl-3-phenyl-4-propargyloxybutyl)-4-(4-fluoro-2-methoxyphenyl)piperazine]",0.64 nM
4,"C#CCOC(C1CCCCC1)C(CCN1CCN(c2cccc3c2OCCO3)CC1)c1ccccc1 (stereo not drawn) [Example 23, 1-(4-Cyclohexyl-3-phenyl-4-propargyloxybutyl)-4-[5-(2,3-dihydro-1,4-benzodioxinyl)]piperazine]",0.63 nM
5,"CCOC(C1CCCCC1)C(CCN1CCN(c2ccc(F)cc2OC)CC1)c1ccccc1 (stereo not drawn) [Example 20, 1-(4-Cyclohexyl-4-ethoxy-3-phenylbutyl)-4-(4-fluoro-2-methoxyphenyl)piperazine]",3.19 nM
6,"N#Cc1ccccc1[C@@H](CCN1CCN(c2cccc3c2OCCO3)CC1)[C@@H](O)C1CCCCC1 (racemic) [Example 14, (RS,SR)-1-[3-(2-Cyanophenyl)-4-cyclohexyl-4-hydroxybutyl]-4-[5-(2,3-dihydro-1,4-benzodioxinyl)]piperazine]",0.401 nM
7,"CCC(O)C(CCN1CCN(c2cccc3c2OCCO3)CC1)c1ccccc1OC(F)(F)F (stereo not drawn) [Example 6, 1-[5-(2,3-Dihydro-1,4-benzodioxinyl)]-4-[4-hydroxy-3-(2-trifluoromethoxyphenyl)hexyl]piperazine]",3.66 nM
8,"COC(C)C(CCN1CCN(c2cccc3c2OCCO3)CC1)c1ccccc1 (stereo not drawn) [Example 11, 1-[5-(2,3-Dihydro-1,4-benzodioxinyl)]-4-[(4-methoxy-3-phenyl)pentyl]piperazine]",3.65 nM
9,"N#Cc1ccccc1C(CCN1CCN(c2cccc3c2OCCO3)CC1)C(=O)C1CCCCC1 (stereo not drawn) [Example 13, 1-[3-(2-Cyanophenyl)-4-cyclohexyl-4-oxobutyl]-4-[5-(2,3-dihydro-1,4-benzodioxinyl)]piperazine]",0.53 nM
10,"COC(C1CCCCC1)C(CCN1CCN(c2ccccc2OCC(F)(F)F)CC1)c1ccccc1F (stereo not drawn) [Example 1, 1-[4-Cyclohexyl-3-(2-fluorophenyl)-4-methoxybutyl]-4-[2-(2,2,2-trifluoroethoxy)phenyl]piperazine]",1.45 nM
11,CCCC(O)C(CCN1CCN(c2cccc3c2OCCO3)CC1)c1ccccc1 (stereo not drawn) [Example 27],1.09 nM
12,"COC(=O)O[C@@H](C1CCCCC1)[C@H](CCN1CCN(c2ccccc2OC)CC1)c1ccccc1F (racemic) [Example 46, (RS,SR) 1-[4-Cyclohexyl-3-(2-fluorophenyl)-4-methoxycarbonyloxybutyl]-4-(2-methoxyphenyl)piperazine]",0.72 nM
13,"C#CC(O)C(CCN1CCN(c2cccc3c2OCCO3)CC1)c1ccccc1 (stereo not drawn) [Example 33, 1-[5-(2,3-Dihydro-1,4-benzodioxinyl)]-4-(4-hydroxy-3-phenylhex-5-ynyl)piperazine]",5.03 nM
14,"CCC(O)C(CCN1CCN(c2cccc3c2OCCO3)CC1)c1ccccc1 (stereo not drawn) [Example 26, 1-[5-(2,3-Dihydro-1,4-benzodioxinyl)]-4-(4-hydroxy-3-phenyl)hexylpiperazine]",2.62 nM
15,"CC(C)=CC(O)C(CCN1CCN(c2cccc3c2OCCO3)CC1)c1ccccc1 (stereo not drawn) [Example 35, 1-[5-(2,3-Dihydro-1,4-benzodioxinyl)]-4-(4-hydroxy-6-methyl-3-phenylhept-5-enyl)piperazine]",1.47 nM
16,"CC(O)C(CCN1CCN(c2cccc3c2OCCO3)CC1)c1ccccc1OC(F)(F)F (stereo not drawn) [Example 5, 1-[5-(2,3-Dihydro-1,4-benzodioxinyl)]-4-[4-hydroxy-3-(2-trifluoromethoxyphenyl)pentyl]piperazine]",8.31 nM
17,"CN(C)C(=O)c1ccccc1C(CCN1CCN(c2cccc3c2OCCO3)CC1)C(=O)C1CCCCC1 (stereo not drawn) [Example 39, 1-[4-Cyclohexyl-3-(2-dimethylaminocarbonylphenyl)-4-oxobutyl]-4-[5-(2,3-dihydro-1,4-benzodioxinyl)]piperazine]",2.92 nM

row,SMILES,Ki
1,"C=CCOC(C1CCCCC1)C(CCN1CCN(c2ccc(F)cc2OC)CC1)c1ccccc1 (stereo not drawn) [Example 22, 1-(4-Allyloxy-4-cyclohexyl-3-phenylbutyl)-4-(4-fluoro-2-methoxyphenyl)piperazine]",2.03 nM
2,"COc1cc(F)ccc1N1CCN(CCC(c2ccccc2)C(OC)C2CCCCC2)CC1 (stereo not drawn) [Example 18, 1-(4-Cyclohexyl-4-methoxy-3-phenylbutyl)-4-(4-fluoro-2-methoxyphenyl)piperazine]",0.81 nM
3,"CCOC(C1CCCCC1)C(CCN1CCN(c2cccc3c2OCCO3)CC1)c1ccccc1 (stereo not drawn) [Example 19, 1-(4-Cyclohexyl-4-ethoxy-3-phenylbutyl)-4-[5-(2,3-dihydro-1,4-benzodioxinyl)]piperazine]",0.69 nM
4,"CCCOC(C1CCCCC1)C(CCN1CCN(c2cccc3c2OCCO3)CC1)c1ccccc1 (stereo not drawn) [Example 25, 1-(4-Cyclohexyl-3-phenyl-4-propoxybutyl)-4-[5-(2,3-dihydro-1,4-benzodioxinyl)]piperazine]",1.18 nM
5,"CN(C)C(=O)c1ccccc1C(CCN1CCN(c2cccc3c2OCCO3)CC1)C(O)C1CCCCC1 (stereo not drawn) [Example 40, 1-[4-Cyclohexyl-3-(2-dimethylaminocarbonylphenyl)-4-hydroxybutyl]-4-[5-(2,3-dihydro-1,4-benzodioxinyl)]piperazine]",1.84 nM
6,"CC=CC(O)C(CCN1CCN(c2cccc3c2OCCO3)CC1)c1ccccc1 (stereo not drawn) [Example 32, 1-[5-(2,3-Dihydro-1,4-benzodioxinyl)]-4-(4-hydroxy-3-phenylhept-5-enyl)piperazine]",3.57 nM
7,CC(C)C(O)C(CCN1CCN(c2cccc3c2OCCO3)CC1)c1ccccc1 (stereo not drawn) [Example 29],1.08 nM
8,"C=CC(O)C(CCN1CCN(c2cccc3c2OCCO3)CC1)c1ccccc1OC(F)(F)F (stereo not drawn) [Example 7, 1-[5-(2,3-Dihydro-1,4-benzodioxinyl)]-4-[4-hydroxy-3-(2-trifluoromethoxyphenyl)hex-5-enyl]piperazine]",7.27 nM
9,"CCCOC(CCC)C(CCN1CCN(c2cccc3c2OCCO3)CC1)c1ccccc1 (stereo not drawn) [Example 12, 1-[5-(2,3-Dihydro-1,4-benzodioxinyl)]-4-[(4-propoxy-3-phenyl)heptyl]piperazine]",3.01 nM
10,"CCCC(OC)C(CCN1CCN(c2cccc3c2OCCO3)CC1)c1ccccc1 (stereo not drawn) [Example 10, 1-[5-(2,3-Dihydro-1,4-benzodioxinyl)]-4-[(4-methoxy-3-phenyl)heptyl]piperazine]",1.68 nM
11,"C=CC(OC)C(CCN1CCN(c2cccc3c2OCCO3)CC1)c1ccccc1OC(F)(F)F (stereo not drawn) [Example 9, 1-[5-(2,3-Dihydro-1,4-benzodioxinyl)]-4-[4-methoxy-3-(2-trifluoromethoxyphenyl)-5-hexenyl]piperazine]",1.9 nM
12,"COc1cc(F)ccc1N1CCN(CCC(C(=O)C2CCCCC2)c2ccccc2C#N)CC1 (stereo not drawn) [Example 15, 1-[3-(2-Cyanophenyl)-4-cyclohexyl-4-oxobutyl]-4-(4-fluoro-2-methoxyphenyl)piperazine]",1.69 nM
13,"C=CCOC(C1CCCCC1)C(CCN1CCN(c2cccc3c2OCCO3)CC1)c1ccccc1 (stereo not drawn) [Example 21, 1-(4-Allyloxy-4-cyclohexyl-3-phenylbutyl)-4-[5-(2,3-dihydro-1,4-benzodioxinyl)]piperazine]",0.77 nM
14,"COc1cc(F)ccc1N1CCN(CCC(c2ccccc2C(=O)N(C)C)C(O)C2CCCCC2)CC1 (stereo not drawn) [Example 42, 1-[4-Cyclohexyl-3-(2-dimethylaminocarbonylphenyl)-4-hydroxybutyl]-4-(4-fluoro-2-methoxyphenyl)piperazine]",4.87 nM
15,"C=CCC(O)C(CCN1CCN(c2cccc3c2OCCO3)CC1)c1ccccc1 (stereo not drawn) [Example 34, 1-[5-(2,3-Dihydro-1,4-benzodioxinyl)]-4-(4-hydroxy-3-phenylhept-6-enyl)piperazine]",1.67 nM
16,"N#Cc1ccccc1C(CCN1CCN(c2cccc3c2OCCO3)CC1)C(O)C1CCCCC1 (racemic) [Example 14a, (RS)-1-[3-(2-Cyanophenyl)-4-cyclohexyl-4-hydroxybutyl]-4-[5-(2,3-dihydro-1,4-benzodioxinyl)]piperazine]",0.878 nM

# — patent publication US20040072839A1, “1-Phenylalkylpiperazines” (priority 2002, published 2004)
